From ChEMBL document CHEMBL5584212, “Characterization of the G-quadruplexes in the transthyretin gene and its role in silencing transthyretin mRNA transcription” (Bioorg Med Chem Lett, 2024)
Activity calls are given as the source filed them. No cut-off for these calls is given here.

Legend:
Quadruplex DNA [1] = assay: Binding affinity to TTRG3 G-quadruplex (unknown origin) assessed as dissociation constant by fluorescence spectroscopy; assay type: nucleic-acid assay
HepG2 [2] = assay: Cytotoxicity against human HepG2 cells at 50 uM by CCK-8 assay relative to control; assay type: toxicity, cell-based; conditions: hepg2, 50 µM
Quadruplex DNA [3] = assay: Binding affinity to parallel TTRG3 G-quadruplex (unknown origin) assessed as formation of anti-parallel G-quadruplex formation in presence of 100 mM K+ by circular dichroism spectra analysis; assay type: nucleic-acid assay
Quadruplex DNA [4] = assay: Binding affinity to parallel TTRG1 G-quadruplex (unknown origin) assessed as formation of anti-parallel G-quadruplex formation in presence of 100 mM K+ by circular dichroism spectra analysis; assay type: nucleic-acid assay
Quadruplex DNA [5] = assay: Binding affinity to TTRG3 G-quadruplex (unknown origin) assessed as hyperchromic shift by measuring increase in absorbance intensity at 1 uM by UV-Visible spectrophotometric analysis; assay type: nucleic-acid assay
Quadruplex DNA [6] = assay: Binding affinity to TTRG3 G-quadruplex (unknown origin) assessed as increase in fluorescence by measuring red shift at 1 uM by UV-Visible spectrophotometric analysis; assay type: nucleic-acid assay
Quadruplex DNA [7] = assay: Stabilization of parallel TTRG3 G-quadruplex (unknown origin) by CD spectra analysis; assay type: nucleic-acid assay
Quadruplex DNA [8] = assay: Stabilization of TTRG3 G-quadruplex (unknown origin) assessed as melting temperature in presence of K+ by circular dichroism analysis; assay type: nucleic-acid assay
HepG2 [9] = assay: Induction of apoptosis in human HepG2 cells at 20 uM incubated for 48 hrs by calcein-AM/PI staining based analysis; assay type: functional, cell-based
Quadruplex DNA [10] = assay: Binding affinity to TTRG3 G-quadruplex (unknown origin) assessed as increase in fluorescence intensity at 2 uM by fluorescence titration spectra analysis; assay type: nucleic-acid assay
Quadruplex DNA [11] = assay: Binding affinity to parallel TTRG1 G-quadruplex (unknown origin) assessed as formation of anti-parallel G-quadruplex formation in presence of 1 mM K+ by circular dichroism spectra analysis; assay type: nucleic-acid assay
Quadruplex DNA [12] = assay: Stabilization of TTRG3 G-quadruplex (unknown origin) assessed as change in melting temperature in presence of K+ by circular dichroism analysis; assay type: nucleic-acid assay
HepG2 [13] = assay: Downregulation of TTR mRNA expression in human HepG2 cells by RT-PCR analysis; assay type: functional, cell-based

Structure (SMILES) | Kd (Quadruplex DNA [1]) [nM] | Activity (HepG2 [2]) [%] | Activity (Quadruplex DNA [3]) | Activity (Quadruplex DNA [4]) | Activity (Quadruplex DNA [5]) | Activity (Quadruplex DNA [6]) | Activity (Quadruplex DNA [7]) | Tm (Quadruplex DNA [8]) [°C] | Activity (HepG2 [9]) | Activity (Quadruplex DNA [10]) | Activity (Quadruplex DNA [11]) | ΔTm (Quadruplex DNA [12]) [°C] | Activity (HepG2 [13])
C[n+]1ccc(-c2c3nc(c(-c4cc[n+](C)cc4)c4ccc([nH]4)c(-c4cc[n+](C)cc4)c4nc(c(-c5cc[n+](C)cc5)c5ccc2[nH]5)C=C4)C=C3)cc1.Cc1ccc(S(=O)(=O)[O-])cc1.Cc1ccc(S(=O)(=O)[O-])cc1.Cc1ccc(S(=O)(=O)[O-])cc1.Cc1ccc(S(=O)(=O)[O-])cc1 | 148 | 85 |  |  |  |  |  |  |  |  |  |  | 
CCC1=C(C)c2cc3[nH]c(cc4nc(cc5c(CC)c(C)c(cc1n2)n5C)C(C)=C4CCC(=O)O)c(CCC(=O)O)c3C | 5.3 | 85 | inactive | inactive | Active | Active | Active | 64 | inactive | Active | Active | 16.1 | 
C[n+]1ccc(-c2c3nc(c(-c4cc[n+](C)cc4)c4ccc([nH]4)c(-c4cc[n+](C)cc4)c4ccc([nH]4)c(-c4cc[n+](C)cc4)c4nc2C=C4)C=C3)cc1 |  |  | inactive | inactive | Active | Active | Active | 69.4 | inactive | inactive | Active | 21.5 | Dose-Dependent Effect
CN1/C(=C/c2cc[n+](C)c3ccccc23)Sc2ccccc21.Cc1ccc(S(=O)(=O)[O-])cc1 | 167 | 85 | inactive | inactive | Active | Active | Active | 53.3 | inactive | Active | Active | 5.4 | 
CN(C)c1ccc(Nc2c3ccc(NC(=O)CCN4CCCC4)cc3nc3cc(NC(=O)CCN4CCCC4)ccc23)cc1 |  | 85 | inactive | inactive | inactive | inactive | Active | 54.8 | inactive | inactive | Active | 6.9 | Dose-Dependent Effect
